Source: ChEMBL document CHEMBL3739380, “Discovery of benzothiazoles as antimycobacterial agents: Synthesis, structure-activity relationships and binding studies with Mycobacterium tuberculosis decaprenylphosphoryl-β-D-ribose 2'-oxidase” (Bioorg Med Chem, 2015)

Experiments:
[1] = Inhibition of Mycobacterium tuberculosis DprE1 using farnesyl-phosphoryl-beta-D-ribofuranose as substrate preincubated for 30 mins before substrate addition by peroxidase coupled assay
[2] = test system: Mycobacterium tuberculosis; test: Antimycobacterial activity against Mycobacterium tuberculosis H37Rv ATCC 27294 after 5 days by microdilution method; format: functional; conditions: H37Rv ATCC 27294, 120 h
[3] = test system: Salmonella typhimurium; test: Genotoxicity in Salmonella typhimurium TA100 at 500 ug/plate by Ames test in absence of S9 fraction; format: toxicity, organism-based; conditions: salmonella enterica subsp. enterica serovar typhimurium
[4] = test system: Salmonella typhimurium; test: Genotoxicity in Salmonella typhimurium TA100 at 500 ug/plate by Ames test in presence of S9 fraction; format: toxicity, organism-based; conditions: salmonella enterica subsp. enterica serovar typhimurium

In the case of `COCc1nc2cc(C(F)(F)F)cc([N+](=O)[O-])c2s1`, the IC50 [1] is reported as 5.9 µM, the MIC [2] is reported as over 32 µg/mL and the Activity [3] is reported as “Non-toxic”. For the same compound, the Activity [4] was “Non-toxic”.
